# Measured values taken from paper PMC7391767, “Molecular mechanisms underlying menthol binding and activation of TRPM8 ion channel” (Nature Communications, 2020).
# Values joined by “and” are separate entries in the source; they are usually repeats but may differ in a detail not shown here. Equal values may be shown once. “Also recorded” adds a separate entry of the source. Read-outs that look alike come from different tables or passages of the source.
# Experiments:
# Type in all cases: cell-based
# wild-type TRPM8 = biological target: T1, wild-type TRPM8 (Mus musculus, UniProt Q8R4D5); test: whole-cell patch-clamp recording of ligand activation
# T1 construct: expressed in transfected cells; host or cells: HEK293T
# T1 sequence (Q8R4D5 whole entry): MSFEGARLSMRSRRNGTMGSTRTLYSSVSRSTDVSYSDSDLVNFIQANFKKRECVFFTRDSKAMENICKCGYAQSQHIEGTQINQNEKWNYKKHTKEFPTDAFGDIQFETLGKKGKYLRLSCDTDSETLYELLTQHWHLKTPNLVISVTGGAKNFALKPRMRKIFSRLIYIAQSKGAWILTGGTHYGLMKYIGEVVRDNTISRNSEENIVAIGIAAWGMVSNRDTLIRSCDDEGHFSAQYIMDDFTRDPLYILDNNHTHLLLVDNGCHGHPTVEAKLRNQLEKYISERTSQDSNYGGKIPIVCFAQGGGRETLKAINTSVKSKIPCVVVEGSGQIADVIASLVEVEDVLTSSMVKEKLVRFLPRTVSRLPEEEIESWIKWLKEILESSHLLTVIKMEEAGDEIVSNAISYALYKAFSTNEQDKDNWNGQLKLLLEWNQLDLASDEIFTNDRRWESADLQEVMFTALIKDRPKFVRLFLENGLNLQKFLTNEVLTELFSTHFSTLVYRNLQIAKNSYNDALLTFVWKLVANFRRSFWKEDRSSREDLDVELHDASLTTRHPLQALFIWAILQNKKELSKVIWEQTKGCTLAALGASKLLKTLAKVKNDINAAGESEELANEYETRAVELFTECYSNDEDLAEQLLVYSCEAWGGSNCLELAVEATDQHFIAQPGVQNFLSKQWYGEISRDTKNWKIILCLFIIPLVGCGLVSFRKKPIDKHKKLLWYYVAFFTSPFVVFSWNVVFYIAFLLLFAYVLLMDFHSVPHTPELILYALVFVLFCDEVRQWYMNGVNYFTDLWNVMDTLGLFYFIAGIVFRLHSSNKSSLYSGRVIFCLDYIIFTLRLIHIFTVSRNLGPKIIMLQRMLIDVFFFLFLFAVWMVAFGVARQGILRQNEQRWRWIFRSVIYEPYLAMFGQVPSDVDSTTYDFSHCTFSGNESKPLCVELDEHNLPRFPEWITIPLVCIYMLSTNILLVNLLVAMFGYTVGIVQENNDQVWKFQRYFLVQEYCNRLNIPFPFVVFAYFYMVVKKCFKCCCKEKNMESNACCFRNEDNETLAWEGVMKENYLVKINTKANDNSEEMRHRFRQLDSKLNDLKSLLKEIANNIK
# Experimental: Murine TRPM8 was used in this study. Point mutations were made by Fast Mutagenesis Kit V2 (SBS Genetech). Primers used to generate point mutations are summarized in Supplementary Table 2.
# Cells were transiently transfected with cDNA constructs by Lipofectamine 3000 (Life Technologies) following the manufacturer’s protocol. Patch-clamp recordings were performed 1–2 days after transfection.
# (§1) Patch-clamp recordings were performed with a HEKA EPC10 amplifier controlled by PatchMaster software (HEKA). Whole-cell recordings were performed at ±80 mV. Patch pipettes were prepared from borosilicate glass and fire-polished to resistance of ~4 MΩ. For whole-cell recording, serial resistance was compensated by 60%. For single-channel recordings, patch pipettes were fire-polished to a higher resistance of 6-to-10 MΩ and then recorded in the inside-out configuration. To maximize the chance of obtaining a patch with only one channel, single-channel recordings were performed about 8 h after transfection. A solution with 130 mM NaCl, 10 mM glucose, 0.2 mM EDTA, and 3 mM HEPES (pH 7.2) was used in both bath and pipette for either whole-cell or single-channel recordings. Membrane potential was clamped at +80 mV for single-channel recordings. Current was sampled at 10 kHz and filtered at 2.9 kHz. All recordings were performed at room temperature (22 °C) with the maximum variation of 1 °C.
# (§2) Ligands such as menthol and its analogs were perfused to membrane patch by a gravity-driven system (RSC-200, Bio-Logic). Bath and ligand solution were delivered through separate tubes to minimize the mixing of solutions. Patch pipette was placed in front of the perfusion tube outlet.
# Data from whole-cell recordings were analyzed in Igor Pro version 6.1 (WaveMatrix). EC50 values were derived from fitting a Hill equation to the concentration–response relationship. […] To distinguish these possibilities, dissociation constant (Kd) for ligand binding was estimated assuming the following gating scheme:1 C0↔KdC1↔LO, where L is the equilibrium constant for the final closed-to-open transition.
# TRPM8 I846V = biological target: T2, TRPM8 I846V (Mus musculus, UniProt Q8R4D5, I846V); test: whole-cell patch-clamp and thermodynamic mutant cycle analysis
# T2 construct: expressed in transfected cells; host or cells: HEK293T
# T2 sequence (Q8R4D5 whole entry I846V): as the sequence (Q8R4D5 whole entry) above, with I846V counted along it
# Experimental: (§3) Murine TRPM8 was used in this study. Point mutations were made by Fast Mutagenesis Kit V2 (SBS Genetech). Primers used to generate point mutations are summarized in Supplementary Table 2. All mutations were confirmed by sequencing.
# (§4) HEK293T cells purchased from Kunming Cell Bank, Kunming Institute of Zoology, Chinese Academy of Sciences (ATCC, CRL-3216) were cultured in Dulbecco’s modified Eagle’s medium supplemented with 20 mM L-glutamine and 10% fetal bovine serum. Cells were transiently transfected with cDNA constructs by Lipofectamine 3000 (Life Technologies) following the manufacturer’s protocol. Patch-clamp recordings were performed 1–2 days after transfection.
# as §1, §2
# (§5) Data from whole-cell recordings were analyzed in Igor Pro version 6.1 (WaveMatrix). EC50 values were derived from fitting a Hill equation to the concentration–response relationship. Changes in EC50 by point mutation may be caused by either perturbation of ligand bind or channel gating or both. To distinguish these possibilities, dissociation constant (Kd) for ligand binding was estimated assuming the following gating scheme:1 C0↔KdC1↔LO, where L is the equilibrium constant for the final closed-to-open transition.
# (§6) To perform thermodynamic cycle analysis, Kd values of four channel-ligand combinations (WT channel, menthol: Kd _1; Mutant channel, menthol: Kd _2; WT channel, menthol analog: Kd _3; Mutant channel, menthol analog: Kd _4) were determined separately. The strength of coupling was determined by the coupling energy (kT multiplied by LnΩ, where k is the Boltzmann constant and T is temperature in Kelvin). LnΩ was calculated by Eq. (2) as[51]2 LnΩ=LnKd_1⋅Kd_4/Kd_2⋅Kd_3.
# TRPM8 F839A = biological target: T3, TRPM8 F839A (Mus musculus, UniProt Q8R4D5, F839A); test: as above
# T3 construct: expressed in transfected cells; host or cells: HEK293T
# T3 sequence (Q8R4D5 whole entry F839A): as the sequence (Q8R4D5 whole entry) above, with F839A counted along it
# Experimental: as §3, §4, §1, §2, §5, §6
# TRPM8 V775A = biological target: T4, TRPM8 V775A (Mus musculus, UniProt Q8R4D5, V775A); test: as above
# T4 construct: expressed in transfected cells; host or cells: HEK293T
# T4 sequence (Q8R4D5 whole entry V775A): as the sequence (Q8R4D5 whole entry) above, with V775A counted along it
# Experimental: as §3, §4, §1, §2, §5, §6
# TRPM8 Y745F = biological target: T5, TRPM8 Y745F (Mus musculus, UniProt Q8R4D5, Y745F); test: as above
# T5 construct: expressed in transfected cells; host or cells: HEK293T
# T5 sequence (Q8R4D5 whole entry Y745F): as the sequence (Q8R4D5 whole entry) above, with Y745F counted along it
# Experimental: as §3, §4, §1, §2, §5, §6
# TRPM8 L843V = biological target: T6, TRPM8 L843V (Mus musculus, UniProt Q8R4D5, L843V); test: as above
# T6 construct: expressed in transfected cells; host or cells: HEK293T
# T6 sequence (Q8R4D5 whole entry L843V): as the sequence (Q8R4D5 whole entry) above, with L843V counted along it
# Experimental: as §3, §4, §1, §2, §5, §6
# TRPM8 L843A = biological target: T7, TRPM8 L843A (Mus musculus, UniProt Q8R4D5, L843A); test: as above
# T7 construct: expressed in transfected cells; host or cells: HEK293T
# T7 sequence (Q8R4D5 whole entry L843A): as the sequence (Q8R4D5 whole entry) above, with L843A counted along it
# Experimental: as §3, §4, §1, §2, §5, §6
# TRPM8 L843I = biological target: T8, TRPM8 L843I (Mus musculus, UniProt Q8R4D5, L843I); test: as above
# T8 construct: expressed in transfected cells; host or cells: HEK293T
# T8 sequence (Q8R4D5 whole entry L843I): as the sequence (Q8R4D5 whole entry) above, with L843I counted along it
# Experimental: as §3, §4, §1, §2, §5, §6
# [1] = R(kcal/K/mol) 1.99E-03, T 2.97E+02, menthol vs labelled analog
# [2] = mutant cycle menthol vs labelled analog
smiles,measurement,setting,value
OC1CCCCC1 [cyclohexanol],activation of TRPM8 channel,wild-type TRPM8; up to 5 mM,failed to open; also recorded: cannot activate
C=C(C)[C@@H]1CC[C@@H](C)C[C@H]1O [isopulegol],"L (equilibrium constant between closed and open states upon ligand binding), Ave",TRPM8 I846V,41.287
same,Ratio X2 (Kd menthol / Kd labelled analog),TRPM8 I846V,0.02928
same,"concentration–response curve value, ave",TRPM8 I846V; 100 microM,0.5053
same,"concentration–response curve value, single recording",TRPM8 I846V; 100 microM,0.5194 and 0.5746 and 0.5283 and 0.3989
same,"concentration–response curve value, ave",TRPM8 I846V; 200 microM,0.8162
same,"concentration–response curve value, single recording",TRPM8 I846V; 200 microM,0.818 and 0.8632 and 0.783 and 0.8004
same,"concentration–response curve value, ave",TRPM8 I846V; 500 microM,0.9296
same,"concentration–response curve value, single recording",TRPM8 I846V; 500 microM,0.9586 and 0.8698 and 0.9387 and 0.9513
same,"concentration–response curve value, ave",TRPM8 I846V; 1000 microM,0.9432
same,"concentration–response curve value, single recording",TRPM8 I846V; 1000 microM,0.9846 and 0.8706 and 0.9587 and 0.9591
same,"concentration–response curve value, ave",TRPM8 I846V; 5000 microM,0.9595
same,"concentration–response curve value, single recording",TRPM8 I846V; 5000 microM,0.9671 and 0.952
same,"Energy, Ave",TRPM8 I846V; [1],2.02
same,Kd,"TRPM8 I846V; calculated from concentration–response curves, read-out: Kd, Ave",4.09 mM
same,Omega(X1/X2),TRPM8 I846V; menthol vs labelled analog,30.85
same,Coupling Energy,TRPM8 I846V; [2],3.43 kT
same,Ratio X2 (Kd menthol / Kd labelled analog),TRPM8 F839A,1.37
same,"Energy, Ave",TRPM8 F839A; [1],-0.25
same,Omega(X1/X2),TRPM8 F839A; menthol vs labelled analog,0.66
same,Coupling Energy,TRPM8 F839A; [2],0.42 kT
same,Ratio X2 (Kd menthol / Kd labelled analog),TRPM8 V775A,2.4876
same,"Energy, Ave",TRPM8 V775A; [1],-0.60
same,Omega(X1/X2),TRPM8 V775A; menthol vs labelled analog,0.36
same,Coupling Energy,TRPM8 V775A; [2],1.01 kT
same,Ratio X2 (Kd menthol / Kd labelled analog),TRPM8 Y745F,1.55E+00
same,"Energy, Ave",TRPM8 Y745F; [1],-0.32
same,Omega(X1/X2),TRPM8 Y745F; menthol vs labelled analog,0.58
same,Coupling Energy,TRPM8 Y745F; [2],0.54 kT
same,Ratio X2 (Kd menthol / Kd labelled analog),TRPM8 L843V,0.4038
same,"Energy, Ave",TRPM8 L843V; [1],0.48
same,Omega(X1/X2),TRPM8 L843V; menthol vs labelled analog,2.24
same,Coupling Energy,TRPM8 L843V; [2],0.81 kT
same,Ratio X2 (Kd menthol / Kd labelled analog),TRPM8 L843A,34.2166
same,"Energy, Ave",TRPM8 L843A; [1],-2.14
same,Omega(X1/X2),TRPM8 L843A; menthol vs labelled analog,0.0264
same,Coupling Energy,TRPM8 L843A; [2],3.63 kT
same,Ratio X2 (Kd menthol / Kd labelled analog),TRPM8 L843I,0.229
same,"Energy, Ave",TRPM8 L843I; [1],0.81
same,Omega(X1/X2),TRPM8 L843I; menthol vs labelled analog,3.95
same,Coupling Energy,TRPM8 L843I; [2],1.37 kT
same,"L (equilibrium constant between closed and open states upon ligand binding), Ave",wild-type TRPM8; WT,2.233
same,Ratio X1 (Kd menthol / Kd labelled analog),wild-type TRPM8; WT,0.9034
same,"concentration–response curve value, ave","wild-type TRPM8; WT, 100 microM",0.06552
same,"concentration–response curve value, ave","wild-type TRPM8; WT, 200 microM",0.185
same,"concentration–response curve value, ave","wild-type TRPM8; WT, 500 microM",0.4757
same,"concentration–response curve value, single recording","wild-type TRPM8; WT, 500 microM",0.4347 and 0.5954 and 0.3968
same,"concentration–response curve value, ave","wild-type TRPM8; WT, 1000 microM",0.5625
same,"concentration–response curve value, single recording","wild-type TRPM8; WT, 1000 microM",0.5176 and 0.6462 and 0.5237
same,"concentration–response curve value, ave","wild-type TRPM8; WT, 5000 microM",0.6452
same,"concentration–response curve value, single recording","wild-type TRPM8; WT, 5000 microM",0.5498 and 0.7014 and 0.6843
same,"concentration–response curve value, ave","wild-type TRPM8; WT, 10000 microM",0.6337
same,"concentration–response curve value, single recording","wild-type TRPM8; WT, 10000 microM",0.5212 and 0.6983 and 0.6816
same,Kd,"wild-type TRPM8; WT, calculated from concentration–response curves (EC50 and Po max), read-out: Kd, Ave",1.05 mM
same,Kd,"wild-type TRPM8; WT, read-out: Kd, single recording",1.32 mM and 0.824 mM and 0.542 mM and 0.812 mM and 1.46 mM and 0.617 mM and 1.26 mM and 1.59 mM
